Entries after “also recorded” stand apart in the source; their conditions may differ.
What was measured:
[1] = cited from earlier work
Broccoli = Broccoli root dry weight after spray (Example 5); assay type: in vivo; details: for root weight, Broccoli (AB spray) / root weight, Broccoli (A spray): dry weight 50 days after planting, untreated 0.69
Protocol: (§1) Plants were sprayed with 0, 2.5, 5, or 7.5 ppm forchlorfenuron, at the cotyledon growth stage in the case of broccoli or at stage 1 in the case of wheat (treatment A), and optionally again with 5 ppm forchlorfenuron three days thereafter (treatment B). The dry weights of the plant roots were measured 50 days after planting.

[2] = pH range; cited from earlier work
[3] = tested on: cotton (G. hirsutum, FiberMax 9058); test: Cotton seedling spray, lateral root development and phytotoxicity (Example 2); assay type: in vivo, Gossypium hirsutum; details: seedlings sprayed 6 days after planting
Protocol: Commercial cotton seed (G. hirsutum, FiberMax 9058, Bayer CropScience) was planted in conetainers and grown for 6 days prior to spraying with a range of forchlorfenuron concentrations. The plants were grown an additional 5 days prior to washing out the roots. Initial concentrations (0, 5, 10, 15, 20, 25, 50, 100, 250, 500, 1000, and 2000 ppm) were evaluated.

[4] = tested on: cotton seeds (G. hirsutum, FiberMax 9058); test: Cotton seed soak, lateral root development (Example 1); assay type: in vivo, Gossypium hirsutum
Excerpt: Commercial cotton seeds (G. hirsutum, FiberMax 9058, Bayer CropScience) were submerged in tubs containing forchlorfenuron at concentrations of 0, 25, 50, 100, 250, 500, 1000, 4000 and 8000 ppm for 10 seconds. The seeds were then placed on paper towels on the lab bench and allowed to air dry. Six days after the seed soak, the seeds were planted in “conetainers” and placed in a greenhouse for one week. The soil was removed from the conetainer and the roots were washed by gently dipping the soil into a bucket of water. Roots were photographed and evaluated for lateral root development.

[5] = tested on: Cotton plants (G. hirsutum, FiberMax 9180 B2F); test: Cotton yield enhancement under abiotic and biotic stresses, boll count (Example 3); assay type: in vivo, Gossypium hirsutum; details: for number bolls: at harvest; for % increase over control: number bolls
Protocol: Cotton plants grown from commercial cotton seeds (G. hirsutum, FiberMax 9180 […], Bayer CropScience) were treated with forchlorfenuron at various stages of growth. […] Control plants were not treated at any stage of growth. At the time of harvest, cotton bolls on all plants were counted, and the percentages of bolls that were open and closed were calculated.

Winter wheat [6] = test: Winter wheat seed treatment, root weight (Table 3); assay type: in vivo; details: untreated 0.91
Winter wheat [7] = test: Wheat root dry weight after spray (Example 5); assay type: in vivo; details: dry weight 50 days after planting, untreated 0.85
Protocol: as §1

[8] = tested on: Broccoli plants (B. oleracea, var. Waltham 29); test: Broccoli root length, stem length and ratio thereof (Example 4); assay type: in vivo, Brassica oleracea; details: for Root Length AB Spray / Root/Stem Ratio AB Spray / Shoot Length AB Spray / Root Length A Spray / Root/Shoot Ratio A Spray / Shoot Length A Spray: percentage of the untreated level, 60 days after planting
Protocol: Broccoli plants (B. oleracea, var. […] The root length and stem length were measured 60 days after planting and the ratio of root length to stem length was calculated for every plant.

[9] = 2.5 ppm ai at cotyledon stage + 5 ppm 3 days after
[10] = 5 ppm ai at cotyledon stage + 5 ppm 3 days after
[11] = 7.5 ppm ai at cotyledon stage + 5 ppm 3 days after
[12] = treating G. hirsutum seeds or plants
[13] = 1st square spray, 5 ppm, Day 41

In the case of `O=C(Nc1ccccc1)Nc1ccnc(Cl)c1` [forchlorfenuron, 1-(2-chloropyridin-4-yl)-3-phenylurea], the solubility in water [1] is listed as “weakly soluble in water; also recorded: poorly soluble in water”, the “root weight, Broccoli (AB spray)” value (Broccoli; [9]) is listed as 0.67 grams and the “root weight, Broccoli (A spray)” value (Broccoli; 2.5 ppm ai at cotyledon stage) is listed as 0.68 grams. For the same compound, the “root weight, Broccoli (AB spray)” value (Broccoli; [10]) was 0.79 grams, the “root weight, Broccoli (A spray)” value (Broccoli; 5 ppm ai at cotyledon stage) was 0.8 grams and the “root weight, Broccoli (AB spray)” value (Broccoli; [11]) was 0.79 grams. For the same compound, the “root weight, Broccoli (A spray)” value (Broccoli; 7.5 ppm ai at cotyledon stage) was 0.76 grams, the “increase in root weight above the untreated level” value (Broccoli; treatment A at 5 ppm, absence of treatment B) was greater than 10% and the “increase in root weight above the untreated level” value (Broccoli; treatment A at 5 ppm, presence of treatment B) was greater than 10%. For the same compound, the “increase in root weight above the untreated level” value (Broccoli; treatment A at 7.5 ppm, absence of treatment B) was greater than 10%, the “increase in root weight above the untreated level” value (Broccoli; treatment A at 7.5 ppm, presence of treatment B) was greater than 10% and the stability [2] was “stable across a wide pH range”. For the same compound, the “concentration with highest lateral root development” value ([3]; roots washed out 5 days later) was 5 ppm, the “Severe phytotoxicity, application concentration” value ([3]; 0-2000 ppm tested) was “above 50 ppm” and the “rooting patterns / lateral root lengths” value ([4]; seed treatment 250 ppm vs 0 ppm, eight plants per treatment (FIG. 1)) was “clear differences in rooting patterns; also recorded: increases in the lateral root lengths”. The “concentration of optimal lateral root production” value ([4]; seeds submerged 10 seconds, 0-8000 ppm tested) was 250 ppm, the “effect on lateral root development” value [4, 12] was “increased lateral root development” and the “% closed bolls” value [5, 13] was 56.7%. The “% open bolls” value [5, 13] was 43.3%, the number bolls [5, 13] was 1096 and the “% closed bolls” value ([5]; Seed soak, 250 ppm on Day 1) was 66.9%. The “% open bolls” value ([5]; Seed soak, 250 ppm on Day 1) was 33.1%, the number bolls ([5]; Seed soak, 250 ppm on Day 1) was 1212 and the number bolls ([5]; Seedling spray, 5 ppm at cotyledon-first leaf stage, Day 21) was 1202. The “% closed bolls” value ([5]; Seedling spray, 5 ppm, Day 21) was 70.5%, the “% open bolls” value ([5]; Seedling spray, 5 ppm, Day 21) was 29.5% and the “% increase over control” value [5, 13] was 1%. The “% increase over control” value ([5]; Seed soak, 250 ppm on Day 1) was 12%, the “% increase over control” value ([5]; Seedling spray, 5 ppm, Day 21) was 11% and the “effect on number of healthy cotton bolls per plant” value [5, 12] was “increased the number of healthy cotton bolls per plant”. For the same compound, the “root weight, Winter Wheat Seed Treat.” value (Winter wheat [6]; 2.5 ppm ai) was 0.97 grams, the “root weight, Winter Wheat Seed Treat.” value (Winter wheat [6]; 5 ppm ai) was 0.81 grams and the “root weight, Winter Wheat Seed Treat.” value (Winter wheat [6]; 7.5 ppm ai) was 0.86 grams. The “root weight, Winter wheat (AB spray)” value (Winter wheat [7]; 2.5 ppm ai at stage 1 + 5 ppm 3 days after) was 0.76 grams, the “root weight, Winter wheat (A spray)” value (Winter wheat [7]; 2.5 ppm ai at stage 1) was 0.91 grams and the “root weight, Winter wheat (AB spray)” value (Winter wheat [7]; 5 ppm ai at stage 1 + 5 ppm 3 days after) was 0.71 grams. The “root weight, Winter wheat (A spray)” value (Winter wheat [7]; 5 ppm ai at stage 1) was 0.69 grams, the “root weight, Winter wheat (AB spray)” value (Winter wheat [7]; 7.5 ppm ai at stage 1 + 5 ppm 3 days after) was 0.87 grams and the “root weight, Winter wheat (A spray)” value (Winter wheat [7]; 7.5 ppm ai at stage 1) was 0.72 grams. For the same compound, the “Root Length AB Spray” value [8, 9] was 104.39%, the “Root/Stem Ratio AB Spray” value [8, 9] was 138.67% and the “Shoot Length AB Spray” value [8, 9] was 79.98%. For the same compound, the “Root Length A Spray” value ([8]; 2.5 ppm ai at cotyledon stage) was 91.86%, the “Root/Shoot Ratio A Spray” value ([8]; 2.5 ppm ai at cotyledon stage) was 94.53% and the “Shoot Length A Spray” value ([8]; 2.5 ppm ai at cotyledon stage) was 95.25%. For the same compound, the “Root Length AB Spray” value [8, 10] was 97.39%, the “Root/Stem Ratio AB Spray” value [8, 10] was 124.29% and the “Shoot Length AB Spray” value [8, 10] was 90.62%. For the same compound, the “Root Length A Spray” value ([8]; 5 ppm ai at cotyledon stage) was 100.6%, the “Root/Shoot Ratio A Spray” value ([8]; 5 ppm ai at cotyledon stage) was 137.48% and the “Shoot Length A Spray” value ([8]; 5 ppm ai at cotyledon stage) was 80.12%. For the same compound, the “Root Length AB Spray” value [8, 11] was 106.69%, the “Root/Stem Ratio AB Spray” value [8, 11] was 119.08% and the “Shoot Length AB Spray” value [8, 11] was 90.13%. For the same compound, the “Root Length A Spray” value ([8]; 7.5 ppm ai at cotyledon stage) was 97.46%, the “Root/Shoot Ratio A Spray” value ([8]; 7.5 ppm ai at cotyledon stage) was 105.16% and the “Shoot Length A Spray” value ([8]; 7.5 ppm ai at cotyledon stage) was 91.78%. For the same compound, the “increase in the ratio of root length to stem length above the untreated level” value (“increase in the ratio of root length” for short) ([8]; Treatment A alone at 5 ppm) was greater than 20%, the “effect on ratio of root length to stem length” value ([8]; moderate concentrations) was “increases the ratio of root length to stem length” and the “increase in the ratio of root length” value ([8]; treatment A at 2.5 ppm together with treatment B) was greater than 20%. For the same compound, the “increase in the ratio of root length” value ([8]; treatment A at 5 ppm together with treatment B) was greater than 20%.
